Tests used:
[1] = test system: CHL/IU (cell line derived from a Chinese hamster lung); experiment: Phospholipidosis detecting system using fluorescent labeling phospholipid analog (NBD-PE); type: cell-based; details: compound dose: 50 μM; for The rate of increase of phopholipid accumulation (%): CHL/IU cells, about 24 hours, relative to NBD-PE control
Protocol: Investigation with a Phospholipidosis Detecting System Using Fluorescent Labeling Phospholipidosis Analog (i) Phospholipid Accumulation Measurement 100 μL/well as required (1 dose 2 wells) of cell suspension of CHL/IU (cell line derived from a Chinese hamster lung) adjusted by MEM (7×10^4 cells/mL) adjusted by MEM (minimum essential medium) culture medium was added to a 96-well plate (96-well clear-bottom plate), and cultured for about 24 hours. After culture, the supernatant of the 96-well plate was removed, and the 100 μL/well compounds of each concentration dissolved and suspended in a minimum essential medium (MEM) including 25 μmol/L nitrobenzoxadiazole dipalmitoyl phosphatidylethanolamine (NBD-PE) (hereinafter abbreviated as a NPD-PE medium) were added and treated for about 24 hours. The treatment concentrations of each compound were set to be 6.25, 12.5, 25, 50 and 100 μmol/L. The positive control substance was set to be amiodarone hydrochloride, and the treatment concentrations were set to be 1.25, 2.5, 5, 10 and 20 μmol/L. In addition, 5 untreated controls (only MEM) and 5 NBD-PE controls (made by means of adding a 1/100 amount of DMSO to the NBD-PE culture medium) were set per compound, and cultured in the same manner. After finishing the culture, the cultures were washed twice with Phosphate buffered saline (hereinafter abbreviated as PBS) (−) 100 μL/well, and the MEM (100 μL) was added to all of the treatment wells including 2 empty wells for WST-1 background controls and cultured for about a half hour. The fluorescence intensities of each well were measured by using a microplate reader (manufactured by Molecular Devices Inc., SPECTRA max M2; the excitation wavelength 485 nm/the fluorescence wavelength 535 nm). (ii) Analysis Using the average values of each dose×2 wells, a phospholipid increase rate (%) to the NBD-PE control was calculated by using the following calculating formula: Phospholipid increase rate (%)=100×{(test article fluorescence intensity−untreated control fluorescence intensity)/(NBD-PE control fluorescence intensity−untreated control fluorescence intensity (iii) Cytotoxicity Assay The 96-well plate measured in the phospholipid accumulation measurement was measured by means of Plate Reader (manufactured by Molecular Devices Inc., SPECTRA max M2) with the main wavelength of 450 nm and the correct wavelength of 690 nm to calculate a Pre value. An amount of 5 μL/well of Premix WS T-1 was added to each of the 96 hole plates by which Pre measurement was conducted. After culture for 2 to 4 hours, the 96-well plate was measured as well as the Pre measurement to calculate an Aft value. Then, the background control value was subtracted from the each measured value. A value which was calculated by subtracting the Pre value from the Aft value was used, then the cell growth rate (%) was calculated by using the following calculating formula: Cell growth rate (%)=100×{(test article OD)/(NBD-PE control OD)} (iv) Determination A test dose that indicated value of equal to or more than 25% of the maximum phospholipid accumulation increase rate of amiodarone which was the positive control was determined as positive. In addition, the dose whose cell growth rate was equal to or less than 50% in the cytotoxicity assay was not used for determination of existence or nonexistence of a phospholipidosis inductive effect.

[2] = test system: DOPA liposome (artificial lipid membrane); experiment: Artificial lipid membrane binding by using Biacore S51 system; details: 50 μM compound; for Judgement (phospholipidosis inductive effect): DOPA liposome; for Corrected value of binding response (RU): DOPA liposome on Sensor Chip L1, 37° C., PBS/5% DMSO (pH 7.4 or PH 6.0)
Protocol: Artificial Lipid Membrane Binding Account by Using Biacore (Registered Trademark) S51 System
10 mM of 1,2-Dioleoyl-sn-Glycero-3-Phosphate, Monosodium Salt (hereinafter abbreviated as DOPA) chloroform solution was evaporated to dryness by means of an aspirator, and 0.6 mL of PBS/5% dimethyl sulfoxide (hereinafter abbreviated as DMSO) was added. The chloroform solution was fully suspended by means of a vortex mixer, and the freezing and thawing were repeated for 5 times. Liposome was created by means of a liposome adjustment instrument (manufactured by Avestin Inc.) and 2 syringes, and was diluted to 0.5 mM with PBS/5% DMSO just prior to immobilization.
(ii) Measurement Compound Adjustment
The 38 μL of 1×PBS is added to 2 μL DMSO solution (10 mM), and further the 360 μL 1×PBS/5% DMSO was added; the 50 μM of final concentration in the 1×PBS/5% DMSO was adjusted and measured.
All of the following analysis used Biacore® S51 system; the measurement conditions were set by Biacore S51 Control Soft.
The measurement temperature was set to be 37° C., and the 1×PBS/5% DMSO (pH 7.4 or PH 6.0) was used as a buffer. Series S Sensor Chip L1 was used for a sensor chip. The DOPA was immobilized in one of the measuring spots on the sensor surface, and the central spot was used as a reference.
Immobilization of liposome was conducted at a flow rate of 10 μL/min for about 3 minutes; then the compound was added at a flow rate of 30 μL/min and the interaction was measured. The measurement conditions are as follows:
Assay buffer: PBS/5% DMSO (pH 7.4 or PH 6.0)
Measurement temperature: 37° C.
Sensor chip: Series S Sensor Chip L1
Flow rate: 10 μL/min at the time of the liposome immobilization; 30 μL/min at the time of the measurement of interaction with the compound
Regeneration: 20 mM CHAPS (3-[(3-Cholamidopropyl)dimethylammonio]-1-propanesulfonate), Isopropanol/50 mM sodium hydroxide solution=40/60 (volume ratio) mixture (60 seconds)
The data processing was conducted by means of method of Abdiche et al. (Analytical biochemistry, 328, 233-243 (2004)) by using Biacore S51 Evaluation Soft.
Regarding the value of binding response (RU) in which the value of reference was subtracted, it was divided by a sample molecular weight after minute error of the DMSO concentration included in the sample solution was corrected. In addition, the value obtained here was divided by an amount of capture at the time of the cycle because the value obtained here was proportional to the amount of capture of the liposome; further, the value was multiplied by a million to be considered as a corrected value (Corrected value=1000000)×RU (test compound)/molecular quantity (test compound) RU (liposome)).
Propranolol, Amiodarone, Desipramine, Imipramine and Procaine were added as the controls, and it was recognized that the variation of the binding response was within ca. 10 to 15%.
The compound, in which a value of the binding response after the correction was equal to or more than 150, was determined as positive.

SMILES	Judgement (phospholipidosis inductive effect) [1]	The rate of increase of phopholipid accumulation (%) [1] [%]	Judgement (phospholipidosis inductive effect) [2]	Corrected value of binding response (RU) [2] [RU]
O=C(CC(=O)N1CCC2(CCN(C3CCCCC3)CC2)C1)N1CCC(N(Cc2ncc[nH]2)Cc2ncc[nH]2)CC1 [Example 65 (4), 1-[3-(8-cyclohexyl-2,8-diazaspiro[4.5]dec-2-yl)-3-oxopropanoyl]-N,N-bis(1H-imidazol-2-ylmethyl)-4-piperidinamine]	negative	12	negative	36.0
CC(C)(C)CN1CCC2(CC1)CCN(C(=O)Cc1ccc(CN(Cc3ncc[nH]3)Cc3ncc[nH]3)cc1)C2 [Example 40 (68), 1-(4-{2-[8-(2,2-dimethylpropyl)-2,8-diazaspiro[4.5]dec-2-yl]-2-oxoethyl}phenyl)-N,N-bis(1H-imidazol-2-ylmethyl)methanamine]	negative	18	negative	77.6
CCC(CC)N1CCC2(CCN(C(=O)c3ccc(CN(Cc4ncc[nH]4)Cc4nccn4C)cc3)C2)CC1 [Example 40 (72), 1-(4-{[8-(1-ethylpropyl)-2,8-diazaspiro[4.5]dec-2-yl]carbonyl}phenyl)-N-(1H-imidazol-2-ylmethyl)-N-[(1-methyl-1H-imidazol-2-yl)methyl]methanamine]	negative	16	negative	72.0
CC(C)CN1CCC2(CCN(Cc3ccc(C(=O)N(Cc4ncc[nH]4)Cc4ncc[nH]4)cc3)CC2)C1 [Example 8 (113), N,N-bis(1H-imidazol-2-ylmethyl)-4-[(2-isobutyl-2,8-diazaspiro[4.5]dec-8-yl)methyl]benzamide]	negative	10	negative	66.6

Reference: patent US8519124B2, “Chemokine receptor antagonists and use thereof” (Ono Pharmaceutical Co., Ltd., priority 2005, dated 2013)
